Test results published in patent US20240109912A1, “TRICYCLIC PYRIMIDINES AS CYCLIN-DEPENDENT KINASE 7 (CDK7) INHIBITORS” (JANSSEN PHARMACEUTICA NV, priority 2020, published 2024).
“And” between values parts separate entries of the source, which are not always exact repeats. Identical values can stand only once. Like-named read-outs stand apart in the source and are kept apart here.

Tests used:
[1] = molecular target: CDK7/cyclinH/MAT1 trimeric complex (Homo sapiens (Human), UniProt P50613); assay: In vitro CDK7 assay, potency of irreversible covalent inhibitors (kinact/KI)
[2] = system: RNA polymerase II Serine 5 phosphorylation (CDK7) in A549 cells
[3] = system: RNA polymerase II Serine 5 phosphorylation in A549 cells overexpressing CDK7 mutant (C312S); assay: Imaging-based cellular RNA PolII Ser5 phosphorylation assay in A549 cells overexpressing CDK7-mutant (C312S); format: cell-based, human; settings: Homo sapiens, A549, A549 cells overexpressing CDK7 mutant (C312S); read-out: CDK7_ A549 mutant hCDK7(pIC50) (converted)
Outline: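 A stably transduced A549 pool overexpressing CDK7 C312S, a mutant that blocks covalent binding at Cys312, while retaining endogenous wild-type CDK7 was used. Ser5 phosphorylation was measured by imaging, and IC50 values were derived.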

[4] = read-out: CDK7 (kinact, s^−1), Table B
[5] = read-out: CDK7 (kinact/KI, M^−1*s^−1), Table B
[6] = CDK7 (20 nM enz.) (KI, μM), 20 nM enz.
[7] = read-out: CDK7 (20 nM enz.) (kinact, s^−1), 20 nM enz.
[8] = read-out: CDK7 (20 nM enz.) (kinact/ KI, M^−1*s^−1), 20 nM enz.
[9] = read-out: CDK7 (20 nM enz.) (kobs/[I], M^−1*s^−1), 20 nM enz.

Chain of CDK7/cyclinH/MAT1 trimeric complex (P50613 whole entry): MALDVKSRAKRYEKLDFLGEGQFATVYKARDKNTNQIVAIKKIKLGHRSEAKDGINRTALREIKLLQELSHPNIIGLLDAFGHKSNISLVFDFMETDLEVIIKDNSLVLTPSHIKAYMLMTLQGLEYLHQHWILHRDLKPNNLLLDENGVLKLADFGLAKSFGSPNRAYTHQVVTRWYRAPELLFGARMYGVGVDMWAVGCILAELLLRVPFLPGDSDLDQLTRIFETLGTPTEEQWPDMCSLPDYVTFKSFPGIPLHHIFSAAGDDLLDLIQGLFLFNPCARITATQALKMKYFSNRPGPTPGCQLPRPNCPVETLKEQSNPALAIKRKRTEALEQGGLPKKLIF
Chain of CDK7/cyclinH/MAT1 trimeric complex (P51946 whole entry partner): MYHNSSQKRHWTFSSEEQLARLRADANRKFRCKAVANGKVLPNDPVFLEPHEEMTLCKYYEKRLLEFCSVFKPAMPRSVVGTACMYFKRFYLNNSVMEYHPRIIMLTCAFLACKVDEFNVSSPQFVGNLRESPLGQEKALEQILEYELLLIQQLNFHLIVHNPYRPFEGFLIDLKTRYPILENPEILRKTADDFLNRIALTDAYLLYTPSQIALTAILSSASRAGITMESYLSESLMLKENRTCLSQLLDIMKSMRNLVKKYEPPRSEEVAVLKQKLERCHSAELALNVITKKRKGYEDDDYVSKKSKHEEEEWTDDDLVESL
Chain of CDK7/cyclinH/MAT1 trimeric complex (P51948 whole entry partner): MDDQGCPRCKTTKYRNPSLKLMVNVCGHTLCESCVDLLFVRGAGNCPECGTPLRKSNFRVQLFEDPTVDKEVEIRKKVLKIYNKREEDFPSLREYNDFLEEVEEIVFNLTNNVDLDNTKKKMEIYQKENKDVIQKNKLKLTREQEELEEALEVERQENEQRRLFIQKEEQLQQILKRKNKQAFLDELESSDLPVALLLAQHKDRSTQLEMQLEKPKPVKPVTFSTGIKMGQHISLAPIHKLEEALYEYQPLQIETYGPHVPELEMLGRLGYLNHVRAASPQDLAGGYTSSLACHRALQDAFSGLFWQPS

Structure (SMILES)	Ki ([1]; CDK7 (KI(μM)), Table B)	kinact [1, 4]	kinact/KI [1, 5]	IC50 [2]	IC50 [3]	melting point	Ki [1, 6]	kinact [1, 7]	kinact/KI [1, 8]	kinact/KI [1, 9]	CDK7 (kinact, s^−1) ([1]; Table B)	CDK7 (kinact/KI, M^−1*s^−1) ([1]; Table B)	CDK7 (20 nM enz.) (kinact/ KI, M^−1*s^−1) ([1]; 20 nM enz.)
C=CC(=O)N1CC(N2CCC(c3ccc4c(c3)Nc3ncnc(N5CCOCC5)c3CO4)CC2C)C1 (centres unmarked) [compound 34]	0.258 µM	0.000186 s⁻¹	721 M⁻¹ s⁻¹	1000 nM	> 10 µM	213 °C							
CC#CC(=O)N1CCN(C2CCN(c3cc(C)c4c(c3)Nc3ncnc(N5CCS(=O)(=O)CC5)c3CO4)CC2)CC1 [compound 137]				166 nM	> 10 µM	267 °C	0.254 µM	9.43e-05 s⁻¹	372 M⁻¹ s⁻¹				
C=CC(=O)N1CC(N2CCC(c3cc4c(cc3C#N)OCc3c(ncnc3N3CCOCC3)N4)CC2)C1 [compound 61]				2000 nM	> 10 µM	> 300 °C	0.83 µM	5.1e-05 s⁻¹	61.4 M⁻¹ s⁻¹				
C=CC(=O)N1CC(N2CCN(c3cc4c(cn3)OCc3c(ncnc3N3CCOCC3)N4)CC2)C1 [compound 71]				1350 nM	> 10 µM	256 °C	3.2 µM	7.12e-05 s⁻¹	22.2 M⁻¹ s⁻¹				
C=CC(=O)N1CCC(N2CC(c3cc(C)c4c(c3)Nc3ncnc(N5CCOCC5)c3CO4)C2)C1 (centres unmarked) [compound 16]				457 nM	> 10 µM	151 °C	0.192 µM	5.05e-05 s⁻¹	263 M⁻¹ s⁻¹				
C=CC(=O)N1CC[C@@H](N2CC(c3cc4c(c(C5CC5)c3)O[C@H](C)c3c(ncnc3N3CCS(=O)(=O)CC3)N4)C2)C1 (single isomer, unassigned) [compound 96]				525 nM	> 10 µM	233 °C	0.0324 µM	2.16e-05 s⁻¹	665 M⁻¹ s⁻¹				
C=CC(=O)N1CC(N2CCC(c3cc(Cl)c4c(c3)Nc3ncnc(N5CCS(=O)(=O)CC5)c3CO4)CC2)C1 [compound 43]				132 nM	> 10 µM	296 °C				1490 M⁻¹ s⁻¹			
C=CC(=O)N1CC[C@H](N2CC(c3cc4c(c(C5CC5)c3)O[C@H](C)c3c(ncnc3N3CCS(=O)(=O)CC3)N4)C2)C1 (single isomer, unassigned) [compound 95]				~955 nM	> 10 µM	193 °C	0.0708 µM	2.35e-05 s⁻¹	332 M⁻¹ s⁻¹				
C=CC(=O)N1CC(N2CCCC(c3ccc4c(c3)Nc3ncnc(N5CCOCC5)c3CO4)C2)C1 (centres unmarked) [compound 35]	2.05 µM	8.56e-05 s⁻¹	41.8 M⁻¹ s⁻¹	~7940 nM	> 10 µM	175 °C							
C=CC(=O)N1CCC(N2CCN(c3cc(C)c4c(c3)Nc3ncnc(N5CCS(=O)(=O)CC5)c3CO4)CC2)CC1 [compound 89]				955 nM	> 10 µM	203 °C	0.128 µM	5.45e-05 s⁻¹	425 M⁻¹ s⁻¹				
C=CC(=O)N1CC(N2CCC(c3cc(F)c4c(c3)Nc3ncnc(N5CCOCC5)c3[C@@H](C)O4)CC2)C1 (single isomer, unassigned) [compound 46]				209 nM	> 10 µM	175 °C	0.094 µM	5.18e-05 s⁻¹	667 M⁻¹ s⁻¹				
CC#CC(=O)N1CCC(N2CCN(c3cc(C)c4c(c3)Nc3ncnc(N5CCS(=O)(=O)CC5)c3CO4)CC2)CC1 [compound 136]				257 nM	> 10 µM	240 °C	0.0874 µM	5.36e-05 s⁻¹	613 M⁻¹ s⁻¹				
C=CC(=O)N1CC(N2CC[C@H](c3ccc4c(c3)Nc3ncnc(N5CCOCC5)c3CO4)[C@H](C)C2)C1 (single isomer, unassigned) [compound 37]	0.164 µM and 0.152 µM	0.000137 s⁻¹	832 M⁻¹ s⁻¹	912 nM and 676 nM	> 10 µM	217 °C					7.29e-05 s⁻¹	478.485 M⁻¹ s⁻¹	
C=CC(=O)N1CC(N2CCC(c3ccc4c(c3)Nc3ncnc(N5CCOCC5)c3C(CC)O4)CC2)C1 (centres unmarked) [compound 66]				933 nM	> 10 µM	118 °C	0.528 µM	4.52e-05 s⁻¹	85.5 M⁻¹ s⁻¹				
C=CC(=O)N1CCC(N2CC(c3cc4c(c(C5CC5)c3)O[C@@H](C)c3c(ncnc3N3CCS(=O)(=O)CC3)N4)C2)C1 (mixture of isomers) [compound 97]				234 nM	> 10 µM	220 °C	0.0068 µM	2.76e-05 s⁻¹	4030 M⁻¹ s⁻¹				
C=CC(=O)N1CC[C@H](N2CC(c3cc4c(c(C5CC5)c3)OCc3c(ncnc3N3CCS(=O)(=O)CC3)N4)C2)C1 (single isomer, unassigned) [compound 94]				537 nM	> 10 µM	167 °C	0.498 µM	8.53e-05 s⁻¹	171 M⁻¹ s⁻¹				
C=CC(=O)N1CCC(N2CC(c3cc(C)c4c(c3)Nc3ncnc(N5CCOCC5)c3CO4)C2)CC1 [compound 14]				468 nM	> 10 µM	191 °C	0.183 µM	3.46e-05 s⁻¹	189 M⁻¹ s⁻¹				
C=CC(=O)N1CC(N2C3CCC2CC(c2ccc4c(c2)Nc2ncnc(N5CCOCC5)c2CO4)C3)C1 (centres unmarked) [compound 40]				437 nM	> 10 µM	212 °C	0.16 µM	5.56e-05 s⁻¹					347 M⁻¹ s⁻¹
C=CC(=O)N1CC(N2CCC(c3cc4c(c(C)n3)O[C@H](C)c3c(ncnc3N3CCS(=O)(=O)CC3)N4)CC2)C1 (single isomer, unassigned) [compound 85]				67.6 nM	> 10 µM	240 °C				725 M⁻¹ s⁻¹			
CC#CC(=O)N1CCC(N2CC(c3cc(C)c4c(c3)Nc3ncnc(N5CCS(=O)(=O)CC5)c3CO4)C2)CC1 [compound 133]				91.2 nM	8.51 µM	180 °C	0.173 µM	2.65e-05 s⁻¹	153 M⁻¹ s⁻¹				
C=CC(=O)N1CCC(N2CCC(c3cc(C)c4c(c3)Nc3ncnc(N5CCS(=O)(=O)CC5)c3CO4)CC2)CC1 [compound 88]				34.7 nM	8.13 µM	256 °C	0.0485 µM	4.48e-05 s⁻¹	923 M⁻¹ s⁻¹				
C=CC(=O)N1CC(N2CCC(c3cc(C)c4c(c3)Nc3ncnc(N5CCS(=O)(=O)CC5)c3[C@H](C)O4)CC2)C1 [compound 32]				~12.6 nM	> 10 µM	> 300 °C	0.0249 µM	4.14e-05 s⁻¹	1660 M⁻¹ s⁻¹	1280 M⁻¹ s⁻¹			
C=CC(=O)N1CCC(N2CC(c3cc4c(c(C)n3)OCc3c(ncnc3N3CCS(=O)(=O)CC3)N4)C2)C1 (centres unmarked) [compound 77]				4070 nM	> 10 µM	> 300 °C	0.172 µM	3.83e-05 s⁻¹	223 M⁻¹ s⁻¹				
C=CC(=O)N1CC(N2CCC(c3cc(Cl)c4c(c3)Nc3ncnc(N5CCOCC5)c3CO4)CC2)C1 [compound 42]				372 nM	> 10 µM	> 300 °C	0.0282 µM	4.14e-05 s⁻¹	1460 M⁻¹ s⁻¹				
